Test system: Fibroblast cells from the NIH3T3D4 cell line
Assay: In-vitro fibroblast cell growth in low serum (colourimetric cell number, Promega CellTiter), with or without potassium channel blockers
Format: cell-based
Settings: for Data (absorbance at 450 nM), cell number: 5 days, mean ± SD, 8 replicates
Method: The assay described hereinbelow looks at the effect of an active on potentiation of cell growth in a low nutrient environment, ie at the effects of the active on cell growth factors which are mitogenic, rather than on the identification of an active which itself is mitogenic.
Glabranin (TimTec) was added in 50 μL of dimethylsulphoxide (DMSO) and vortexed to dissolve. […] of the glabranin in DMSO was added to Dulbeccos Minimum Essential Medium (DMEM) containing 2% v/v foetal calf serum (FCS) to give a 10 μg/mL glabranin solution. Serial dilutions were prepared using DMSO/DMEM/FCS as above. 1 mM minoxidil in DMSO/DMEM/FCS as above was used as a positive control. A DMSO control in DMEM containing 2% v/v FCS was also prepared.
Fibroblast cells from the NIH3T3D4 cell line (European collection of animal cell cultures, Health Protection Agency Porton Down, England) were cultured in DMEM media in the absence of antibiotics. The cells were removed using 10 mL of 0.25% w/w trypsin and 0.038% w/v EDTA in Hank's medium for 5 minutes, 10 mL DMEM containing 10% v/v FCS was added and the cells were spun down at 1000 rpm for 2 minutes. After removing the medium the cells were washed in 10 mL of DMEM containing 10% v/v FCS and spun at 1000 rpm for 2 minutes. The cells were then resuspended in 10 mL of DMEM containing 10% v/v FCS and counted using a cell counting chamber. A suspension of cells containing 5000 cells per 100 μL (50,000 cells per mL) was prepared and 100 μL of the cell suspension was plated out into a 96 well plate. The cells were allowed to adhere overnight in an incubator at 37 degrees centigrade in an atmosphere of 5% v/v CO2 in air. After washing the wells thrice with DMEM (without FCS), 100 μL of the test solution (containing […] glabranin per mL DMSO/DMEM/FCS with or without 10 μM glibenclamide (a potassium ion channel blocker) and 0.1 mM tetraethylammonium (TEA is a potassium ion channel blocker which directly binds to the channel) was added to each of eight wells. Fresh media containing glabranin was added every day for 5 days.
Cell numbers were determined after 5 days in test medium using a colourimetric method (Promega CellTiter Reagent from Promega). 20 μL Reagent was added to each well and the plate incubated as before for one hour.

Compound	Data (absorbance at 450 nM), cell number (glabranin 0.01 μg/ml in 2% FCS/DMSO)	Data (absorbance at 450 nM), cell number (glabranin 0.1 μg/ml in 2% FCS/DMSO)	Data (absorbance at 450 nM), cell number (glabranin 1 μg/ml in 2% FCS/DMSO)	potassium channel opening leading to fibroblast cell growth (conclusion from table 1) (growth increase reversed by potassium channel blockers)	Data (absorbance at 450 nM), cell number (Minoxidil 75 μM in 2% FCS/DMSO)
CC(C)=CCc1c(O)cc(O)c2c1O[C@H](c1ccccc1)CC2=O [glabranin, (2S)-5,7-dihydroxy-8-(3-methylbut-2-enyl)-2-phenyl-2,3-dihydrochromen-4-one]	0.34 ± 0.02	0.34 ± 0.02	0.31 ± 0.02	potassium channel opener	
Nc1cc(N2CCCCC2)nc(N)[n+]1[O-] [Minoxidil, reference compound]					0.36 ± 0.04

— patent US20130096189A1, “USE OF GLABRANIN FOR STIMULATING HAIR GROWTH” (priority 2010, published 2013)
